For series [1], the system named is Leishmania donovani. The series can be described thus: Antileishmanial activity against Leishmania donovani MHOM/ET/67/HU3 promastigotes by drug sensitivity assay. The class given is functional, organism-based.
Series [2] has as its system Leishmania donovani. The series is described as follows: Activity ratio of compound EC50 to miltefosine EC50 for intracellular Leishmania donovani MHOM/ET/67/HU3 amastigotes infected in peritoneal macrophages of Mesocricetus auratus. The format is functional.
Series [3] concerns Leishmania donovani. The series is described as follows: Antileishmanial activity against intracellular Leishmania donovani MHOM/ET/67/HU3 amastigotes infected in peritoneal macrophages of Mesocricetus auratus by drug sensitivity assay. The class given is functional, organism-based.
A short description of series [4]: Therapeutic index, ratio of EC50 for human THP1 cells to EC50 for intracellular Leishmania donovani MHOM/ET/67/HU3 amastigotes infected in peritoneal macrophages of Mesocricetus auratus. The format is cell-based, THP-1. Conditions: read-out: TI.
In series [5] the test system is Leishmania donovani. The series is described as follows: Antileishmanial activity against Leishmania donovani MHOM/ET/67/HU3 amastigotes infected in po dosed BALB/c mouse model administered one week after infection for 5 consecutive days measured after 3 days of last dose by Giemsa staining. The class given is functional. Conditions: for ED50: MHOM/ET/67/HU3, po.

The nature of series [6]: Therapeutic index, ratio of EC50 for human KB cells to EC50 for intracellular Leishmania donovani MHOM/ET/67/HU3 amastigotes infected in peritoneal macrophages of Mesocricetus auratus. The class given is cell-based. Conditions: read-out: TI.
The test system of series [7] is Leishmania donovani. The series can be described thus: Antileishmanial activity against Leishmania donovani MHOM/ET/67/L82 infected in po dosed BALB/c mouse model. The format is functional. Conditions: MHOM/ET/67/L82, po.
A short description of series [8]: Solubility at phosphate-buffered saline of pH 7.4. The class given is physicochemical. The note with it: buffer.
Series [9] deals with Leishmania donovani. The series can be described thus: Antileishmanial activity against Leishmania donovani MHOM/ET/67/HU3 amastigotes infected in ip dosed BALB/c mouse model administered as suspension one week after infection for 5 consecutive days measured after 3 days of last dose by Giemsa staining. The class given is functional. The note with it: MHOM/ET/67/HU3, ip.
Series [10] concerns Leishmania donovani. The series can be described thus: Antileishmanial activity against Leishmania donovani MHOM/ET/67/HU3 amastigotes infected in ip dosed BALB/c mouse model administered one week after infection for 5 consecutive days measured after 3 days of last dose by Giemsa staining. The format is functional. Conditions: MHOM/ET/67/HU3, ip.

A value given as a limit tells only on which side of the number the result lay.

`CCCCCCCCCCCCCCCCCCCOP(=O)([O-])OCC[N+]1(C)CCCCC1` returned a concentration for a half-maximal effect (EC50) in the series with Leishmania donovani [1] of 1.29 µM.

For `CCCCCCCCCCCCCCCCCCSCC(COC)COP(=O)([O-])OCC[N+]1(C)CCCCC1.O` (configuration not stated), the “Ratio EC50” value in the series with Leishmania donovani [2] came to 0.07. The half-maximal effective concentration (EC50) is 0.25 µM in the series on Leishmania donovani [3] and 3.61 µM in the series with Leishmania donovani [1].

On to `CCCCCCCCCCCCCCCCCCOCC(COP(=O)([O-])OCC[N+]1(C)CCCCC1)OC` (configuration not stated), for which the “Ratio EC50” value in the series on Leishmania donovani [2] is recorded as 0.32. Also, the EC50 stood at 1.68 µM in the series on Leishmania donovani [3] and 1.79 µM with Leishmania donovani [1].

Consider `CCCCCCCCCCCCCCCCCCOP(=O)([O-])OCCC1CC[N+](Cc2ccccc2)(Cc2ccccc2)CC1.O`, for which the “Ratio EC50” value with Leishmania donovani [2] is given as 0.23. In the series on Leishmania donovani [3], the concentration for a half-maximal effect (EC50) was 0.76 µM.

Take `CCCCCCCCCCCCCCCCCCOCCOCCOP(=O)([O-])OCC[N+]1(C)CCCC1`: in the series with Leishmania donovani [1], the concentration for a half-maximal effect (EC50) stood at 3.36 µM.

Regarding `CCCCCCCCCCCCCCCCCCOCC(COP(=O)([O-])OC1CC2CCC(C1)[N+]2(C)C)OC` (configuration not stated), the EC50 in the series on Leishmania donovani [1] came to 1.69 µM.

`CCCCCCCCC(Br)C(Br)CCCCCCCCOP(=O)([O-])OCC[N+](C)(C)C` (configuration not stated) yielded a concentration for a half-maximal effect (EC50) with Leishmania donovani [1] of 1.09 µM.

Turning to `CCCCCCCCCCCCCCCCOCCOCCOCCOCCOCCOCCOCCOCCOCCOCCOP(=O)([O-])OC1CC[N+](C)(C)CC1`, the “Ratio EC50” value in the series with Leishmania donovani [2] came to 0.4. In the series on Leishmania donovani [3], this compound had an EC50 of 1.32 µM.

`CCCCCCCCCCCCCCCCCC(C)OP(=O)([O-])OCC[N+](C)(C)C` (configuration not stated) returned an EC50 in the series with Leishmania donovani [1] of 3.35 µM.

On to `CCCCCCCCCCCCCCCCOP(=O)([O-])OCC[N+]1(C)CCCCC1`, for which the results for the selectivity ratio in series [4] and in [6] were 95.7 and 23.4, respectively. In addition, the “Ratio EC50” value in the series with Leishmania donovani [2] was determined as 0.09. The same compound displayed an EC50 in the series with Leishmania donovani [3] of 0.3 µM. In addition, the Activity result in the series with Leishmania donovani [5] is “Dose-dependent effect”. This compound also yielded an ED50 in the series with Leishmania donovani [5] of 25.5 mg/kg.

With `CCCCCCCCCCCCCCCCCCOP(=O)([O-])OC1CC2CCC(C1)[N+]2(C)C` (configuration not stated), the “Ratio EC50” value in the series with Leishmania donovani [2] stood at 0.13. This compound also came in with a 50% effective concentration (EC50) in the series on Leishmania donovani [3] of 0.71 µM.

Take `CCCCCCCCCCCCCCCCCCOP(=O)([O-])OCC[N+]1(C)CCSCC1.O`: the “Ratio EC50” value with Leishmania donovani [2] worked out at 0.23. In addition, the half-maximal effective concentration (EC50) was 1.22 µM with Leishmania donovani [3] and 2.37 µM in the series with Leishmania donovani [1].

`CCCCCCCCCCCCCCCCCCOP(=O)([O-])OC1CC[N+](C)(C)CC1` [PERIFOSINE]: the ED50 in the series with Leishmania donovani [7] was determined as 25.2 mg/kg. Besides, the “Ratio EC50” value with Leishmania donovani [2] came out at 0.63. The compound further yielded a concentration giving a half-maximal response (EC50) with Leishmania donovani [1] of 3.02 µM.

On to `CCCCCCCCCCCCCCCCOP(=O)([O-])OCC[N+](C)(C)c1ccccc1.O`, for which the “Ratio EC50” value with Leishmania donovani [2] is recorded as 0.11. This compound also came in with an EC50 in the series with Leishmania donovani [3] of 0.58 µM.

`CCCCCCCCCCCCCCCCOP(=O)([O-])OCC[N+]1(C)CCOCC1.O`: the “Ratio EC50” value with Leishmania donovani [2] is 0.46. In the series on Leishmania donovani [3], this compound registered an EC50 of 2.46 µM.

The compound `CCCCCCCCCCCCCCCCCCOP(=O)([O-])OCC[N+](C)(C)C` [OCTADECYLPHOSPHONOCHOLINE] gave a half-maximal effective concentration (EC50) in the series with Leishmania donovani [1] of 2.4 µM.

The compound `CCCCCCCCCCCCCCCCCCOP(=O)([O-])OC1CC[N+]2(CCCC2)CC1` yielded an EC50 in the series with Leishmania donovani [1] of 3.06 µM.

In the series on Leishmania donovani [1], `CCCCCCCCCCCCCCCCOCCCOP(=O)([O-])OCC[N+](C)(C)C` showed a half-maximal effective concentration (EC50) of 1.55 µM.

On to `CCCCCCCCCCCCCCCCOP(=O)([O-])OC1CC[N+](C)(Cc2ccccc2)CC1` (configuration not stated), for which the solubility entry in series [8] was “Soluble”. The figures for the selectivity ratio in [4] and in series [6] were greater than 220 and 179, respectively. In the series with Leishmania donovani [9], this compound registered an ED50 of 33 mg/kg. Moreover, in the series with Leishmania donovani [2], the “Ratio EC50” value amounted to 0.12. The EC50 with Leishmania donovani [3] came to 0.41 µM.

Consider `CCCCCCCCCCCCCCCCOP(=O)([O-])OCC[N+]12CCC(CC1)CC2.O`, for which, in the series with Leishmania donovani [2], the “Ratio EC50” value is reported as 0.16. Further, the EC50 in the series with Leishmania donovani [3] turned out to be 0.55 µM.

Take `CCCCCCCCCCCCCCCCCCOP(=O)([O-])OC1CC[N+](C)(Cc2ccccc2)CC1.O` (configuration not stated): the “Ratio EC50” value with Leishmania donovani [2] worked out at 0.12. For the same compound, the EC50 in the series on Leishmania donovani [3] was determined as 0.4 µM.

On to `CCCCCCCCCCCCCCCCOP(=O)([O-])OC1CC[N+](C)(CCc2ccccc2)CC1.O.O` (configuration not stated), for which, in the series with Leishmania donovani [2], the “Ratio EC50” value is on record as 0.49. In the series with Leishmania donovani [3], this compound came in with an EC50 of 0.99 µM.

As for `CCCCCCCCCCCCCCCCCCOP(=O)([O-])OC1CC[N+](CC)(CC)CC1.O.O`, the selectivity ratio in [4] worked out at 11.7; in series [6] it was 6.89. In the series on Leishmania donovani [2], the “Ratio EC50” value was 0.12. The compound further had a concentration giving a half-maximal response (EC50) in the series with Leishmania donovani [3] of 0.4 µM. Besides, the ED50 in the series on Leishmania donovani [5] worked out at 35.3 mg/kg.

Consider `CCCCCCCCCCCCCCCCCCOP(=O)([O-])OCC[N+]1(C)CCOCC1`, for which the “Ratio EC50” value in the series with Leishmania donovani [2] came out at 0.18. In addition, the EC50 with Leishmania donovani [3] stood at 0.94 µM.

`CCCCCCCCCCCCCCCCCCOP(=O)([O-])OCCC1CC[N+](C)(Cc2ccccc2)CC1.O.O` (configuration not stated): the “Ratio EC50” value with Leishmania donovani [2] was 0.25. Besides, it took 0.82 µM to reach a half-maximal effect in the series with Leishmania donovani [3] (EC50).

As for `CCCCCCCCCCCCCCCCCCOP(=O)([O-])OC1CCC[N+](C)(C)C1` (configuration not stated), in the series on Leishmania donovani [2], the “Ratio EC50” value is given as 0.13. This compound also gave an EC50 with Leishmania donovani [3] of 0.43 µM.

As to `CCCCCCCCCCCCCCCCCCOP(=O)([O-])OCC[N+](C)(C)C1CCCCC1.O`, in the series with Leishmania donovani [2], the “Ratio EC50” value is on record as 0.22. This compound yielded a half-maximal effective concentration (EC50) in the series on Leishmania donovani [3] of 1.19 µM.

Take `CCCCCCCCCCCCCCCCCCOP(=O)([O-])OC1CC[N+](C)(CC)CC1` (configuration not stated): the midpoint of the response in the series with Leishmania donovani [1], the EC50, lay at 2.71 µM.

With `CCCCCCCCCCCCCCCCOP(=O)([O-])OCC[N+](C)(C)C` [MILTEFOSINE], the 50% effective dose (ED50) with Leishmania donovani [10] came out at 7.72 mg/kg; in the series with Leishmania donovani [7], 10 mg/kg; in the series on Leishmania donovani [5], 8.09 mg/kg. Also, the selectivity ratio in series [4] is 5.48; in series [6], 0.83. Besides, the figures for the EC50 in the series with Leishmania donovani [3] and in the series on Leishmania donovani [1] were 2.04 µM and 5.7 µM, respectively.

Regarding `CCCCCCCCCCCCCCCCCCOP(=O)([O-])OCC[N+]1(C)CCC(O)CC1` (configuration not stated), the “Ratio EC50” value in the series on Leishmania donovani [2] stood at 0.41. Also, the EC50 in the series on Leishmania donovani [3] worked out at 1.37 µM; in the series with Leishmania donovani [1], 3.06 µM.

With `CCCCCCCCCCCCCCCCCCOP(=O)([O-])OCC[N+](C)(C)C1CC1.O`, the “Ratio EC50” value in the series on Leishmania donovani [2] is 0.5. For the same compound, the results for the concentration for a half-maximal effect (EC50) with Leishmania donovani [3] and in the series on Leishmania donovani [1] were 2.64 µM and 1.52 µM, respectively.

On to `CCCCCCCCCCCCCCCCOCC(COP(=O)([O-])OCC[N+](C)(C)C)OC` (configuration not stated), for which it took 3.58 µM to reach a half-maximal effect in the series with Leishmania donovani [1] (EC50).

As for `CCCCCCCCCCCCCCCCCCOP(=O)([O-])OCC[N+](C)(C)CC`, the EC50 in the series with Leishmania donovani [1] worked out at 2.04 µM.
